Columns and labels:
[1] = system: T1, CTL2-GFP (C. trachomatis L2/434/Bu, GFP-expressing); test: microbe, parasite or virus in culture; design: Intracellular C. trachomatis growth in HeLa cells, bulk GFP fluorescence relative to DMSO; conditions: Chlamydia trachomatis, HeLa, 28.5 h; bulk GFP, mean of 2; read-out: % of control remaining
T1 construct: L2/434/Bu, GFP-expressing
Protocol: MICs were calculated as described above.

in vitro [2] = test: in vitro; design: Viability of infected HeLa host cells, resazurin conversion, bulk resorufin fluorescence relative to DMSO; conditions: human, hela cells; bulk resorufin, mean of 2
[3] = system: T2, C. trachomatis L2/434/Bu expressing GFP (CTL2-GFP); test: microbe, parasite or virus in culture; design: C. trachomatis total inclusion area by high-content imaging, normalised to DMSO; conditions: Chlamydia trachomatis, HeLa, 28.5 h; total inclusion area; read-out: % of control remaining
T2 construct: L2/434/Bu GFP intracellular growth in HeLa cells
Excerpt: We screened a library of 36,785 small molecules displaying drug-like properties and covering a wide chemical space (Fig 1A and S2A Data). In this process, we also complemented the assay described above with an imaging-based readout (Fig 1B). After measurements of bulk GFP and resorufin fluorescence, cells were fixed, stained with the DNA dye Hoechst, and imaged at a high-content imaging platform to detect chlamydial inclusions (GFP) and host cell nuclei (Hoechst). The total area and number of inclusions in individual wells and the number of nuclei then served as additional proxies for chlamydial growth and host cell viability. […] MICs were calculated as described above.

in vitro [4] = conditions: human, hela cells, % viability

SMILES | activity at 1 µM [1] [%] | activity at 5 µM [1] [%] | activity at 10 µM [1] [%] | viability at 28.5 h, 1 µM (in vitro [2]) [%] | viability at 28.5 h, 5 µM (in vitro [2]) [%] | viability at 28.5 h, 10 µM (in vitro [2]) [%] | activity at 1 µM [3] [%] | activity at 5 µM [3] [%] | activity at 10 µM [3] [%] | viability at 28.5 h, 10 µM (in vitro [4]) [%] | other results
c1c(C2CC2)[nH]c2nc(N3CCCC3)nc(N3CCCC3)c12 [CBK016707G] | 3.94 | 11.1 | 20.9 | 99.1 | 96.9 | 86.9 | 0.765 | 0.748 | 3.52 | – | –
O=S(=O)(Nc1ccc(C(F)(F)F)cc1Cl)c1cc(Br)c(Cl)s1 [CBK057196] | 142 | 108 | 69.6 | 90.4 | 93.1 | 88.2 | 114 | 75.1 | 57.9 | – | –
CCc1nnc(NS(=O)(=O)c2ccc(N/C=C3\C(=O)N(c4ccc(Cl)cc4)N=C3C)cc2)s1 [CBK262416] | 91.1 | 26.1 | 13.2 | 91.9 | 94.3 | 93.3 | 102 | 50.5 | 27 | – | –
CC(C)c1ccc(/C=C/C(=O)NCc2ccc(NS(C)(=O)=O)cc2)cc1 [CBK161512] | 138 | 96.2 | 43.8 | 101 | 104 | 94.9 | 74.8 | 59.3 | 20.9 | – | –
CCOC(=O)c1c(C)n(-c2ccc(C)cc2)c2ccc(O)c(CN(C)C)c12 [CBK263499C] | 124 | 104 | 38.4 | 101 | 93.4 | 90.3 | 89 | 95.9 | 12.4 | – | –
CN1CCCN(c2cc(C(F)(F)F)c3scc(C(=O)NCc4cccc(F)c4F)c3n2)CC1 [CBK036386T] | 124 | 97.2 | 57.7 | 99 | 101 | 101 | 69.4 | 59.6 | 46.9 | – | –
O=C(O)c1cn(C2CC2)c2cc(N3CCNCC3)c(F)cc2c1=O [CBK011645] | 12.8 | 1.31 | 0 | – | – | – | 11.1 | 0.824 | 0.167 | – | –
Cc1sc2c(C3CCN(C(=O)C4CC4)CC3)nc(C)n2c1C [CBK285298] | – | – | – | – | – | – | – | – | – | 101 | –
CC(NC(=O)CC(C)n1cccn1)c1cc2cc(Cl)ccc2o1 (stereo not shown) [CBK281432] | – | – | – | – | – | – | – | – | – | 92.6 | –
O=C(Nc1cccc(C(F)(F)F)c1)c1cnsn1 [CBK018923] | – | – | – | – | – | – | – | – | – | 88.9 | –
CCn1c(=N)n(CC(=O)O)c2ccccc21 [CBK262906B] | – | – | – | – | – | – | – | – | – | 94 | –
CC(C)(C)c1cc(C(=O)NCc2ccccn2)n(Cc2ccc(Cl)cc2Cl)n1 [CBK107288] | – | – | – | – | – | – | – | – | – | 101 | –
Cc1ccc(-c2cc(C(=O)NCCCn3ccnc3)no2)cc1 [CBK268200] | – | – | – | – | – | – | – | – | – | 102 | –
CCCNC(=O)COc1ccc(CC)cc1 [CBK058199] | – | – | – | – | – | – | – | – | – | 93.9 | –
Cc1ccc(S(=O)(=O)Nc2ccccn2)c(C)c1C [CBK264995] | – | – | – | – | – | – | – | – | – | 90 | –
O=C(C1=C(O)C(=O)N(CCCN2CCOCC2)C1c1cccnc1)c1cc2ccccc2o1 (stereo not shown) [CBK266147] | – | – | – | – | – | – | – | – | – | 104 | –
Nc1cccc(-c2cncc(N(CCO)CCO)n2)c1 [CBK065808] | – | – | – | – | – | – | – | – | – | 95.5 | –
CCOC(=O)c1c(NC(=O)Cn2cnc3ccccc32)sc2c1CCCC2 [CBK260917] | – | – | – | – | – | – | – | – | – | 106 | –
Cc1cccc(OCc2nnc(SCC(=O)Nc3cc(C(F)(F)F)ccc3Cl)o2)c1C [CBK267204] | – | – | – | – | – | – | – | – | – | 85.3 | –
CSc1cc(C)c2c(c1)COC1(CCN(C(=O)Cc3ccccc3)CC1)O2 [CBK061099] | – | – | – | – | – | – | – | – | – | – | viability at 28.5 h, 10 µM (in vitro [4]; bulk resorufin, single well): 93.4%

Reference: paper PMC12040169 (PLOS Biology, 2025)
